ChEMBL document CHEMBL1201862, “PubChem BioAssay data set” (2004)
Blank lines part the entries; values can stand above or below the molecule they belong to. The source made the active and inactive calls.

Legend:
[1] = NIH-3T3 fibroblast cytotoxicity, dose response, cytotoxicity control, cell-based, fluorescence, Alamar Blue, secondary assay (AID 2327); type: functional;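 also: NIH-3T3 mouse fibroblasts cultured with fluconazole at 8 µg/mL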
[2] = system: BJ; experiment: cells; type: functional, cell-based; conditions: Homo sapiens
[3] = target: T1, Serine/threonine-protein phosphatase (Candida dubliniensis (strain CD36 / CBS 7987 / NCPF 3949 / NRRLY-17841) (Yeast), UniProt B9W6M3); experiment: Fluorescence Cell-Based Secondary Assay to Identify Inhibitors of Calcineurin. [Related pubchem assays (depositor defined):AID1979, AID2007]; type: functional
T1 sequence (B9W6M3 whole entry): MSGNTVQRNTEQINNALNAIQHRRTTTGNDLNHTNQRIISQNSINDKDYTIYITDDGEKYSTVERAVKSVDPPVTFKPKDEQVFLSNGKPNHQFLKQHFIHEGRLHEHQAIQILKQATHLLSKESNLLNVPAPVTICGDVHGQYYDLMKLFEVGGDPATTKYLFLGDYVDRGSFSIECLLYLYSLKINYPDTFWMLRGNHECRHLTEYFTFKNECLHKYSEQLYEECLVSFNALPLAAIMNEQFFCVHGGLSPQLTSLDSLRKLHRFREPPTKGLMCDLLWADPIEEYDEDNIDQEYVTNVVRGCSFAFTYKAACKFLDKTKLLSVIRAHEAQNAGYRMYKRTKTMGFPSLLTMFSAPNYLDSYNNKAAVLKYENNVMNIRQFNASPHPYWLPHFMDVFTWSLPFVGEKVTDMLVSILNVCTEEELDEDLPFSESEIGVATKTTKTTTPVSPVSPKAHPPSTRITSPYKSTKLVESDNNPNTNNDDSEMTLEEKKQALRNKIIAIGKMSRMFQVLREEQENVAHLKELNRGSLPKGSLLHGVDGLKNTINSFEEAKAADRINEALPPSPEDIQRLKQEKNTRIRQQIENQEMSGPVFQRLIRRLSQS

[4] = target: ATP-dependent molecular chaperone HSP82 (Candida albicans (strain WO-1) (Yeast), UniProt C4YTQ8); experiment: loss of DOC-induced GRE-beta-galactosidase reporter signal, dose response, Hsp90 inhibitor project, S. cerevisiae, luminescence (AID 2400); type: functional, cell-based;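 also: beta-galactosidase luminescence from glucocorticoid response element reporter as proxy for Hsp90 function; inhibitor potency where signal loss means Hsp90 inhibition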
[5] = target: Dual specificity protein kinase CLK2 (Homo sapiens, UniProt P49760); type: functional
[6] = target: Serine/threonine-protein kinase PLK3 (Homo sapiens, UniProt Q9H4B4); type: functional
[7] = target: 5'-AMP-activated protein kinase catalytic subunit alpha-1 (Homo sapiens, UniProt Q13131); type: functional
[8] = target: ALK tyrosine kinase receptor (Homo sapiens, UniProt Q9UM73); type: functional;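 also: ALK tested as one member of a kinase panel screen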
[9] = target: Serine/threonine-protein kinase D2 (Homo sapiens, UniProt Q9BZL6); type: functional;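 also: measured against PRKD2 as one member of a kinome-wide kinase profiling panel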
[10] = target: Serine/threonine-protein kinase 17A (Homo sapiens, UniProt Q9UEE5); type: functional
[11] = target: MAP kinase-activated protein kinase 2 (Homo sapiens, UniProt P49137); type: functional;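 also: measured as one member of a kinome-wide kinase panel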
[12] = target: Cell division cycle 7-related protein kinase (Homo sapiens, UniProt O00311); type: functional;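 also: value obtained from a kinome-wide kinase panel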
[13] = target: Casein kinase II subunit alpha (Homo sapiens, UniProt P68400); type: functional
[14] = target: Serine/threonine-protein kinase PAK 1 (Homo sapiens, UniProt Q13153); type: functional
[15] = target: Fibroblast growth factor receptor 1 (Homo sapiens, UniProt P11362); type: functional
[16] = target: Casein kinase I isoform alpha (Homo sapiens, UniProt P48729); type: functional
[17] = target: Tyrosine-protein kinase JAK3 (Homo sapiens, UniProt P52333); type: functional
[18] = target: Casein kinase I isoform gamma-1 (Homo sapiens, UniProt Q9HCP0); type: functional;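 also: measured as the CSNK1G1 member of a kinome profiling panel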
[19] = target: Ribosomal protein S6 kinase alpha-5 (Homo sapiens, UniProt O75582); type: functional
[20] = target: Tyrosine-protein kinase Lyn (Homo sapiens, UniProt P07948); type: functional;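 also: lyn as one member of a kinase panel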
[21] = target: Mitogen-activated protein kinase kinase kinase 20 (Homo sapiens, UniProt Q9NYL2); type: functional
[22] = target: Protein kinase C gamma type (Homo sapiens, UniProt P05129); type: functional
[23] = target: Proto-oncogene tyrosine-protein kinase Src (Homo sapiens, UniProt P12931); type: functional;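 also: SRC entry within a kinome-wide kinase profiling panel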
[24] = target: MAP kinase-activated protein kinase 3 (Homo sapiens, UniProt Q16644); type: functional;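 also: value comes from a kinome-wide profiling panel in which MAPKAPK3 is one of the panel members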
[25] = target: Serine/threonine-protein kinase Chk1 (Homo sapiens, UniProt O14757); type: functional;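 also: measured as one member of a kinome-wide kinase profiling panel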
[26] = target: Ephrin type-A receptor 2 (Homo sapiens, UniProt P29317); type: functional;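 also: EPHA2 tested as one member of a kinome-wide kinase panel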
[27] = target: Insulin-like growth factor 1 receptor (Homo sapiens, UniProt P08069); experiment: Navigating the Kinome. Panel member name: IGF1R; type: functional
[28] = target: Serine/threonine-protein kinase Nek4 (Homo sapiens, UniProt P51957); type: functional
[29] = target: Interleukin-1 receptor-associated kinase 4 (Homo sapiens, UniProt Q9NWZ3); type: functional
[30] = target: Homeodomain-interacting protein kinase 4 (Homo sapiens, UniProt Q8NE63); type: functional
[31] = target: 3-phosphoinositide-dependent protein kinase 1 (Homo sapiens, UniProt O15530); type: functional;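 also: value comes from the Navigating the Kinome panel, PDPK1 member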
[32] = target: Serine/threonine-protein kinase Nek2 (Homo sapiens, UniProt P51955); type: functional
[33] = target: Glycogen synthase kinase-3 beta (Homo sapiens, UniProt P49841); type: functional;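 also: value comes from a broad kinome profiling panel, with GSK3B as the panel member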
[34] = target: Serine/threonine-protein kinase MRCK alpha (Homo sapiens, UniProt Q5VT25); type: functional
[35] = target: Dual specificity tyrosine-phosphorylation-regulated kinase 1A (Homo sapiens, UniProt Q13627); type: functional;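 also: measured against DYRK1A as one member of a broad kinome profiling panel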
[36] = target: Serine/threonine-protein kinase 3 (Homo sapiens, UniProt Q13188); type: functional;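 also: measured as one member of a kinome-wide kinase panel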
[37] = target: Epidermal growth factor receptor (Homo sapiens, UniProt P00533)
Epidermal growth factor receptor, sequence (P00533 whole entry): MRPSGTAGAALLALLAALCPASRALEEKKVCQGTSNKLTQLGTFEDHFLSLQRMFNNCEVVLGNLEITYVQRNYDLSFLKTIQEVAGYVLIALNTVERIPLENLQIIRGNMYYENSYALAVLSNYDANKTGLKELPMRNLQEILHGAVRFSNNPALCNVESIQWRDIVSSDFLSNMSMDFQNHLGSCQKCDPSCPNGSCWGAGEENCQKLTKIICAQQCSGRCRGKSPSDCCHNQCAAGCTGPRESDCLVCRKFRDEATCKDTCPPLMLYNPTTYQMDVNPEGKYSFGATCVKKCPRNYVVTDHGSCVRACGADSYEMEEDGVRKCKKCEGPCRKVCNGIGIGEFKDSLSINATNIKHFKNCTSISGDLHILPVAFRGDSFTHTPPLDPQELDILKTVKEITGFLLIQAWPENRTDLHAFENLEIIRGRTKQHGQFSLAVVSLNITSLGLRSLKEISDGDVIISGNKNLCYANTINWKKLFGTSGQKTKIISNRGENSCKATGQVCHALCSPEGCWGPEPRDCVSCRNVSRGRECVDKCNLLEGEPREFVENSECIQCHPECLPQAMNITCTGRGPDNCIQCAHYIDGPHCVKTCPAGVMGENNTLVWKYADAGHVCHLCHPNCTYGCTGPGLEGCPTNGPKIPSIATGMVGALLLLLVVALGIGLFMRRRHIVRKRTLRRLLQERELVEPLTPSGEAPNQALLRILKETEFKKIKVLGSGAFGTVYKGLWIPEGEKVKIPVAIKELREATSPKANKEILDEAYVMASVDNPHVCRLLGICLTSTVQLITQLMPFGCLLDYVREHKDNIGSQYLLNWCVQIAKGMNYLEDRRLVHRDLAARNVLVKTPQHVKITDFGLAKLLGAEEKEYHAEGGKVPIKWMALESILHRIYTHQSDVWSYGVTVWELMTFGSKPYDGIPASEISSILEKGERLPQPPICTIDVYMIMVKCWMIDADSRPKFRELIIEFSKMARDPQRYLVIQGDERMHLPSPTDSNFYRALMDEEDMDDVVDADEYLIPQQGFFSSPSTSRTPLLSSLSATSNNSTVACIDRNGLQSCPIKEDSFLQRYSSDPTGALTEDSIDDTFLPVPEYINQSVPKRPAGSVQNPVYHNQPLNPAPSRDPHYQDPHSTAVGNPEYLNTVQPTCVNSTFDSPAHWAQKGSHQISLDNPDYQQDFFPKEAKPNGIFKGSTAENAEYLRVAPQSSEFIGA

Serine/threonine-protein kinase Chk1, sequence (O14757 whole entry): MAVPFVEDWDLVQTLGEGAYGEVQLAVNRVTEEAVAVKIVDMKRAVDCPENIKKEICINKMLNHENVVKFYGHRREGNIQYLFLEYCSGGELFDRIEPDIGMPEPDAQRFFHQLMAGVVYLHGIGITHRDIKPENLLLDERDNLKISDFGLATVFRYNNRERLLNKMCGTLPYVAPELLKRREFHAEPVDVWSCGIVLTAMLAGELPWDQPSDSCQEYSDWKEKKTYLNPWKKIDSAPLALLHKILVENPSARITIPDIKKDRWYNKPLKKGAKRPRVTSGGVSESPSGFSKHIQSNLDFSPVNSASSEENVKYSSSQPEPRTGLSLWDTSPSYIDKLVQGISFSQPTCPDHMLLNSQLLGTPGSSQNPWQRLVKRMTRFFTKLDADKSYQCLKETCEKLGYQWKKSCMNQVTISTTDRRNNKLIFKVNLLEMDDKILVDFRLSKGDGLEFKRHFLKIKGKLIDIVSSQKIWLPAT
Glycogen synthase kinase-3 beta, sequence (P49841 whole entry): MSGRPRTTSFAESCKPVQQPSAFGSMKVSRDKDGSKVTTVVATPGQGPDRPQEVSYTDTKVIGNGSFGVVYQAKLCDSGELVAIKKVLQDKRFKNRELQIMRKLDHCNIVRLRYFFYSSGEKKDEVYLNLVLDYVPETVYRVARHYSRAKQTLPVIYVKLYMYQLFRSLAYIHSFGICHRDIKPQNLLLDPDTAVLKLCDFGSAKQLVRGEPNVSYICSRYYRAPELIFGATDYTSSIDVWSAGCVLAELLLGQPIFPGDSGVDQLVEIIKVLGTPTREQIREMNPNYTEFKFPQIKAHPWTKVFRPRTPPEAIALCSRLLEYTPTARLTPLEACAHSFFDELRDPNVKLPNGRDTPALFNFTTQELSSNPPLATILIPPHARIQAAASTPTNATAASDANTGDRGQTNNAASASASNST
Proto-oncogene tyrosine-protein kinase Src, sequence (P12931 2-536 limits assumed): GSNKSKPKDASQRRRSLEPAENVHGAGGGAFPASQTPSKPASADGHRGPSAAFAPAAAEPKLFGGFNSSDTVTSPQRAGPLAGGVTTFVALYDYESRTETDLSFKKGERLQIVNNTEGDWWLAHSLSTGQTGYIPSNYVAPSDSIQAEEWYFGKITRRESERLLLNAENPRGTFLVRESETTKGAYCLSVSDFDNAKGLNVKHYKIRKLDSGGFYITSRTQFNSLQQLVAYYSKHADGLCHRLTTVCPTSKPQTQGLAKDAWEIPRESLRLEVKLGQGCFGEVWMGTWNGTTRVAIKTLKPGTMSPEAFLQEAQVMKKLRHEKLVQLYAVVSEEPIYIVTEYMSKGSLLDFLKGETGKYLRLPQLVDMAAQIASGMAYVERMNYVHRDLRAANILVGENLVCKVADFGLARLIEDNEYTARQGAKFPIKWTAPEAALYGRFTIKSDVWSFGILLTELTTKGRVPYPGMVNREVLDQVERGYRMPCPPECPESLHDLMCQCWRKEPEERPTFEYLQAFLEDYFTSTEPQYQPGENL
Ribosomal protein S6 kinase alpha-5, sequence (O75582 whole entry): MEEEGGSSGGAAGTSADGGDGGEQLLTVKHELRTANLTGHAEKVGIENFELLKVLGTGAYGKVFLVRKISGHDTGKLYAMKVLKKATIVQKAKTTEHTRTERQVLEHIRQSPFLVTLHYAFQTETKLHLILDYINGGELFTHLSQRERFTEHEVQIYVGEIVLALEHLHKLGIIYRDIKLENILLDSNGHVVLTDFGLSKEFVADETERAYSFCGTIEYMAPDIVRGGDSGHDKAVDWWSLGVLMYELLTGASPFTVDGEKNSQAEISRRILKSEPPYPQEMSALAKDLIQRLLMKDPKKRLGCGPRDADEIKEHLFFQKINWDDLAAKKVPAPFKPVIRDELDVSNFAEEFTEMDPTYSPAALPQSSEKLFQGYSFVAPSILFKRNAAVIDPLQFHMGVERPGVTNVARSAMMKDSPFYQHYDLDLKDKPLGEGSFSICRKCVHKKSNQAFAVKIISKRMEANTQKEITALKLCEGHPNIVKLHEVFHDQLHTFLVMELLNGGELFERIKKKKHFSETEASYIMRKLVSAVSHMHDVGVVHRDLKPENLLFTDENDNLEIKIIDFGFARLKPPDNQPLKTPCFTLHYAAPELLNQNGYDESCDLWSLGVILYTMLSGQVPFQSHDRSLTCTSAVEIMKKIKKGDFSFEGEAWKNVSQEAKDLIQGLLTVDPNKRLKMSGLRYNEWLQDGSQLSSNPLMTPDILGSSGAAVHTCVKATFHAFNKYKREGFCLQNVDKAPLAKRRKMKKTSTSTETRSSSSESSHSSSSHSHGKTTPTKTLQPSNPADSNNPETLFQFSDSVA
Serine/threonine-protein kinase Nek2, sequence (P51955 whole entry): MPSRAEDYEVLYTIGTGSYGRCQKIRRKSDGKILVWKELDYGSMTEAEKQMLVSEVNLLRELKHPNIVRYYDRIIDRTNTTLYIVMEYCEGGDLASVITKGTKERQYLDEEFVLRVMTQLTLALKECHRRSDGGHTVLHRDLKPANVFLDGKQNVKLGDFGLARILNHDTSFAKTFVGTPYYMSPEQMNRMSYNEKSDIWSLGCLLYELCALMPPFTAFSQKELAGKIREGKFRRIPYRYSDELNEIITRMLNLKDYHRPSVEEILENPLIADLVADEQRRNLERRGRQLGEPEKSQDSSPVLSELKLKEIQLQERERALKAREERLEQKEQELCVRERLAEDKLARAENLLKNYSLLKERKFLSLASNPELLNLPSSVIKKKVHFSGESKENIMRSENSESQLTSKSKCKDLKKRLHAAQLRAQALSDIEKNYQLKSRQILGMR
Casein kinase I isoform gamma-1, sequence (Q9HCP0 whole entry, canonical isoform): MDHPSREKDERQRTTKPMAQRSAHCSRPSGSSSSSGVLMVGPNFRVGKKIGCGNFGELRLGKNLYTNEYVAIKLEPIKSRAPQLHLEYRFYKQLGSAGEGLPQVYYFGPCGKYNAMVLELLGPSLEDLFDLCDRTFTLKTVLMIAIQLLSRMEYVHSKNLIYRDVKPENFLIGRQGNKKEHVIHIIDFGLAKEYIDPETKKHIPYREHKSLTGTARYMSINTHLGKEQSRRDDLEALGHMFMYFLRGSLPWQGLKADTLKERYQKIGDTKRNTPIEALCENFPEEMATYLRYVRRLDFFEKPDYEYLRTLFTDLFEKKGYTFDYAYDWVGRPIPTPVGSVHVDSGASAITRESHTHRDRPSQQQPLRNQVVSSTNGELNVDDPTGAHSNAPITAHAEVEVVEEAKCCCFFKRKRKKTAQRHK
5'-AMP-activated protein kinase catalytic subunit alpha-1, sequence (Q13131 whole entry): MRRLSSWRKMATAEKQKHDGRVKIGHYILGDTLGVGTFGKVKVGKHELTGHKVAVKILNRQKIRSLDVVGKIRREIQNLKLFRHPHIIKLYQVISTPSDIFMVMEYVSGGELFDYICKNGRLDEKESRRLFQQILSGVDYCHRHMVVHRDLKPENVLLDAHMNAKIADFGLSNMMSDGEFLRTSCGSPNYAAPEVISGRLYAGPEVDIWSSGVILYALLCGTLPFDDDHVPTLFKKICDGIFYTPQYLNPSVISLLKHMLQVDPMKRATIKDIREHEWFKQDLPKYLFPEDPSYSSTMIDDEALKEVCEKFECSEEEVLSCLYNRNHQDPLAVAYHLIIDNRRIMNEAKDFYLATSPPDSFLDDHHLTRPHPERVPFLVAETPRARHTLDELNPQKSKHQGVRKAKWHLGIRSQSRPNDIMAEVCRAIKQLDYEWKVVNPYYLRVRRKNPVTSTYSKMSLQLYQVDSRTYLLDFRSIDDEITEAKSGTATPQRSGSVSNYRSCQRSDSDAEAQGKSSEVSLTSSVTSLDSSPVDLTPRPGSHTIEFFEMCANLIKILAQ

SMILES: COc1ccc(-c2nnc(NC(=O)c3ccc(F)cc3)o2)cc1
- EC50 [1]: > 150 µM (inactive)
- EC50 [2]: 30.7 µM (active)
- EC50 [3]: > 285 µM (inactive)
- EC50 [4]: > 150 µM (inactive)

- Ki [5]: > 7.94 µM (inactive)
- Ki [6]: > 7.94 µM (inactive)
- Ki [7]: > 1.58 µM (inactive)
- Ki [8]: > 1.26 µM (inactive)
- Ki [9]: 2 µM (active)
- Ki [10]: 0.158 µM (active)
- Ki [11]: > 7.94 µM (inactive)
- Ki [12]: 0.0794 µM (active)
- Ki [13]: > 6.31 µM (inactive)
- Ki [14]: > 10 µM (inactive)
- Ki [15]: > 5.01 µM (inactive)
- Ki [16]: > 6.31 µM (inactive)
- Ki [17]: > 1.58 µM (inactive)
- Ki [18]: > 6.31 µM (inactive)
- Ki [19]: 0.0631 µM (active)
- Ki [20]: > 1.58 µM (inactive)
- Ki [21]: > 7.94 µM (inactive)
- Ki [22]: 0.251 µM (active)
- Ki [23]: > 2 µM (inactive)
- Ki [24]: > 10 µM (inactive)
- Ki [25]: > 7.94 µM (inactive)
- Ki [26]: > 3.16 µM (inactive)
- Ki [27]: > 2 µM (inactive)
- Ki [28]: > 6.31 µM (inactive)
- Ki [29]: > 10 µM (inactive)
- Ki [30]: 5.01 µM (active)
- Ki [31]: > 3.98 µM (inactive)
- Ki [32]: > 10 µM (inactive)
- Ki [33]: 0.0631 µM (active)
- Ki [34]: 0.158 µM (active)
- Ki [35]: > 6.31 µM (inactive)
- Ki [36]: > 7.94 µM (inactive)
- Ki [37]: > 2 µM (inactive)
SMILES: CCn1c(-c2nonc2N)nc2cnc(Oc3cccc(NC(=O)c4ccc(OCCN5CCOCC5)cc4)c3)cc21 [GSK-269962A]
